One series has as its system Aspergillus flavus. Description: MIC/MFC broth dilution (CLSI), clinical isolates. Type of series: cell-based. The following applies: A. Flavus, 3 isolates, 48 h at 37° C. As to the method: (§1) Isolates of Aspergillus fumigatus, Aspergillus flavus, Aspergillus terreus Aspergillus niger, Rhizopus oryzae, Candida albicans and Candida krusei were isolated from patients in Israeli hospitals and used for in vitro efficacy studies.
(§2) Efficacy was evaluated by measuring minimum inhibitory concentration (MIC) and minimum fungicidal concentration (MFC) values for fungal isolates. Testing of isolates was performed according to the Clinical & Laboratory Standards Institute (CLSI) method. (CLSI. 2008. M27-A3 Reference method for broth dilution antifungal susceptibility testing of yeasts; Approved Standard—3rd edition. Clinical and Laboratory Standards Institute, Wayne). RPMI MOPS media was used throughout the experiment as growth and dilution media. Spores and yeast cells were harvested in 0.05% Tween from 24-48 h and cultures were grown in rich yeast extract-agar-glucose (YAG) medium (composed of: 0.5% w/v yeast extract, 1% w/v glucose, 10 millimolar (mM) MgCl2, supplemented with 0.1% v/v trace elements solution, and 0.2% v/v vitamin mix). The spores and the yeast cells were counted and diluted to a final concentration of 2.5×10^4 per ml. A stock solution of 5 mg/ml was prepared in dimethylsulfoxide for free AMB. Compounds 4 and 6 were prepared in sterile saline. Double dilutions of each drug were performed in 100 μL volume of RPMI-MOPS in 96 well plates beginning with a final concentration of 32 micrograms (μg)/well of each drug to 0.06 μg/well. 2500 spores or yeast cells were added to each well. Results were recorded 48 h post incubation at 37° C. […] The MFC was defined as the lowest drug concentration that yielded three or fewer colonies (i.e. 99% of the inoculum was killed).
A general note: In broth dilution the organism is exposed to a series of concentrations in liquid medium.

The next series relates to Aspergillus fumigatus. Description: MIC/MFC broth dilution (CLSI), clinical isolates. The conditions noted are these: A. fumigatus, 4 isolates, 48 h at 37° C. Type of series: cell-based. As to the method:
as §1, §2

The next series has as its system Aspergillus niger. In words: MIC/MFC broth dilution (CLSI), clinical isolates. Type of series: cell-based. The following applies: A. niger, 3 isolates, 48 h at 37° C. The method, then:
as §1, §2

In another series the test system is Aspergillus terreus. Description: MIC/MFC broth dilution (CLSI), clinical isolates. The conditions noted are these: listed as printed C. terreus, 1 isolate, 48 h at 37° C. It counts as cell-based. The method, then:
as §1, §2

Another series has as its system Candida albicans. In words: MIC/MFC broth dilution (CLSI), clinical isolates. Type of series: cell-based. The following applies: C. albicans, 2 isolates, 48 h at 37° C. The method, then:
as §1, §2

The next series relates to Candida krusei. In words: MIC/MFC broth dilution (CLSI), clinical isolates. Type of series: cell-based. The following applies: C. krusei, 3 isolates, 48 h at 37° C. The method, then: as §1, §2
The next series has as its system Rhizopus oryzae. In words: MIC/MFC broth dilution (CLSI), clinical isolates. Type of series: cell-based. The following applies: 1 isolate, 48 h at 37° C. The method, then: as §1, §2
The subject of series [1] is C. albicans CBS 562. In words: In-vitro time-kill study. Type of series: cell-based, Candida albicans. The conditions noted are these: 2-fold above the MIC, over 2 hours, 30° C. As to the method: In time-kill studies, C. albicans CBS 562 was grown overnight from a single colony in 50 ml of liquid YPD medium (composed of 1% (w/v) yeast extract, Difco, 2% w/v peptone, Difco, and 2% w/v dextrose, Merck) at 30° C. On the next day, the starter was diluted 1:100 in the same medium and grown to an optical density at 600 nanometers (OD600 nm) of 0.5-0.6. Then, cells were counted and diluted to 10^6 cells/ml in YPD. Compound 6 and amphotericin B (AMB) were added at concentrations 2-fold above the MIC determined for this strain (2 and 0.5 μg/ml, respectively) and shaken at 30° C. At different time points (0, 15 min, 30 min, 1 h, 2 h) samples were removed, diluted and plated on YPD agar (2% agar) plates. Colonies were counted after incubation for 24 h at 30° C. Control measurements included untreated C. albicans cells and cells treated with AMB. All time-kill curve studies were conducted in duplicate and in three independent experiments.

In series [2] the test system is mouse embryonic fibroblasts (MEFs). Description: MTT viability assay in mouse embryonic fibroblasts. It counts as cell-based. The method, then:
Reference is made to FIG. 4C. Mouse embryonic fibroblasts were used in this example. 1×10^4 mouse embryonic fibroblasts (MEFs) per well were seeded in 96-well plates and incubated at 37° C. After 24 h the media was replaced with 100 μl culture medium containing serial dilutions of AMB, compounds 4 or 6, or left untreated. After 24 h, the media was replaced by fresh media (100 μl per well) containing 1 mg/ml MTT (3-(4,5-Dimethylthiazol-2-yl)-2,5-Diphenyltetrazolium Bromide, ((Biological Industries, Israel)) reagent and the cells were incubated for an additional 3 h at 37° C. MTT-formazan crystals were dissolved by the addition of 100 μl per well of extraction solution (20% SDS, 50% N,N-dimethyl formamide (DMF), pH=4.7) and incubation for 16 h at 37° C. Absorbance at 570 nm was recorded on a Biotek Synergy HT plate reader.
The results were expressed as the percentage of living cells relative to the untreated control and are depicted in FIG. 4C. The inhibition concentration (IC50) value is the concentration of the compound which inhibited cell growth by 50%.

Another series relates to ICR mice. In words: In vivo toxicity, intravenous injection. The following applies: for LD50 / Maximum Dose: tail vein. As to the method: In-vivo toxicity was determined in mice using 6 week old female ICR mice (n=6). Different concentrations of each formulation were injected intravenously through the tail vein, 0.2 ml per mouse, until death was observed. PAD-AMB conjugates were prepared in sterile saline solution and were filtered through 0.45-micrometer pore-size cellulose acetate sterile filters prior to injection.

Series [3] has as its system C. albicans CBS 562. In words: Experimental systemic murine candidiasis, survival. The following applies: four daily injections, 24 days. It counts as in vivo, mice. As to the method:
Reference is Made to FIG. 5. Efficacy of PAD-AMB was Tested on Naïve 6 Week Old female ICR mice (n=20). Experimental systemic murine candidiasis was induced by intravenous inoculation of C. albicans CBS 562 into the tail vein using an inoculum of 5×10^4 cells in 0.2 ml per mouse. Fungal count was determined by microscopic counts on a haemocytometer. Treatment began 24 h after inoculation of C. albicans and consisted of four consecutive daily injections of Compound 6 at a range of 1.75-8.75 mg/kg/day relative to mouse body weight. Control groups included infected untreated mice and mice treated with AMB (1 mg/kg/day body weight). Survival and mouse body weight were monitored for 24 days. Survival for the various mouse groups is shown graphically in FIG. 5.

Molecules are shown by their SMILES. Values after ≈ are worked out from the molar mass of the structure shown. Where only a bound is given, the exact number is not on record here.

The record followed here is patent publication US9750817B2, “Amphotericin B derivatives” (priority 2015, dated 2017).

The MIC is the smallest concentration in the dilution series that meets the test's criterion for growth inhibition. Lower therefore signals a more susceptible organism. Usually LD50 stands for the dose expected to kill half of the subjects tested. Higher therefore signals a less toxic substance. `C[C@@H]1[C@H](O)[C@@H](C)/C=C/C=C/C=C/C=C/C=C/C=C/C=C/[C@H](O[C@@H]2O[C@H](C)[C@@H](O)[C@H](N)[C@@H]2O)C[C@@H]2O[C@](O)(C[C@@H](O)C[C@@H](O)[C@H](O)CC[C@@H](O)C[C@@H](O)CC(=O)O[C@H]1C)C[C@H](O)[C@H]2C(=O)O` [AMB, Amphotericin B]: the MFC against Aspergillus flavus was 0.5 to 1 µg/mL; against Aspergillus fumigatus, 0.5 to 4 µg/mL; in the series on Aspergillus niger it was 0.5 to 1 µg/mL; against Aspergillus terreus, 4 µg/mL (≈ 4.33 µM); in the series with Candida albicans it was 0.5 µg/mL (≈ 0.541 µM); against Candida krusei, 1 to 2 µg/mL. The molecule also showed an MFC with Rhizopus oryzae of 0.25 µg/mL (≈ 0.271 µM). The MIC in the series on Aspergillus flavus was 0.5 to 1 µg/mL; in the series with Aspergillus fumigatus, 0.25 to 1 µg/mL; in the series on Aspergillus niger, 0.5 to 1 µg/mL; against Aspergillus terreus, 2 µg/mL (≈ 2.16 µM); in the series on Candida albicans, 0.25 µg/mL (≈ 0.271 µM); with Candida krusei, 0.5 µg/mL (≈ 0.541 µM). Further, in the series with Rhizopus oryzae, the MIC is 0.25 µg/mL (≈ 0.271 µM). In the series on C. albicans CBS 562 [1], the “time-kill activity (fungal presence)” value was “reducing the fungal presence”. Moreover, the “IC50 (concentration which inhibited cell growth by 50%)” value in series [2] (24 h exposure, MTT) is 6.6 µg/mL. This molecule returned an LD50 in the series with ICR mice (female ICR mice, intravenous) of 1.2 mg/kg. Further, the “Maximum Dose” value in the series on ICR mice (female ICR mice, intravenous) came out at 1.1 mg/kg. For the same molecule, the “outcome at twice the LD50” value in the series on ICR mice (mice injected at twice the LD50) is on record as “die instantaneously”. In addition, the maximum tolerated dose entry with ICR mice (mouse) was “about 1 mg/kg body weight per day”. Also, the “mice rescued (survival)” value with C. albicans CBS 562 [3] (1 mg/kg/day) is listed as 10 of the 12.

Regarding `COC(=O)C1C(O)CC2(O)CC(O)CC(O)C(O)CCC(O)CC(O)CC(=O)OC(C)C(C)C(O)C(C)C=CC=CC=CC=CC=CC=CC=CC(OC3OC(C)C(O)C(NC(=O)CCOCCOCCOCCOCCOCCOCCOCCOCCN)C3O)CC1O2` (stereo not shown) [Compound 6, amphotericin B amide, methyl ester-PEG(8)-amine], the MFC in the series on Aspergillus flavus is 2 to 4 µg/mL; against Aspergillus fumigatus it was 2 to 8 µg/mL; against Aspergillus niger, 2 µg/mL (≈ 1.47 µM); against Aspergillus terreus, 16 µg/mL (≈ 11.8 µM); against Candida albicans it was 2 µg/mL (≈ 1.47 µM); with Candida krusei it was 4 µg/mL (≈ 2.94 µM). Also, the MFC against Rhizopus oryzae was found to be 4 µg/mL (≈ 2.94 µM). The MIC was 2 to 4 µg/mL against Aspergillus flavus; 1 to 8 µg/mL with Aspergillus fumigatus; 2 µg/mL (≈ 1.47 µM) against Aspergillus niger; 16 µg/mL (≈ 11.8 µM) against Aspergillus terreus; 1 µg/mL (≈ 0.734 µM) against Candida albicans; 2 µg/mL (≈ 1.47 µM) against Candida krusei. For the same molecule, in the series with Rhizopus oryzae, the minimum inhibitory concentration (MIC) was found to be 4 µg/mL (≈ 2.94 µM). In addition, the “time-kill activity (fungal presence)” value in the series with C. albicans CBS 562 [1] was “reducing the fungal presence”. Further, the “times less toxic than AMB” value in series [2] (from IC50) is reported as “at least 600 times”. In addition, the “mouse LD50 fold higher than AMB” value with ICR mice (female ICR mice, intravenous) is recorded as at least 40 fold. For the same molecule, the “signs of toxicity at the highest injectable doses” value in the series with ICR mice (female ICR mice, intravenous) is reported as “did not show any signs of toxicity”. In addition, the LD50 result with ICR mice (female ICR mice, intravenous) was “not reached”. For the same molecule, the “Maximum Dose” value in the series with ICR mice (female ICR mice, intravenous) is reported as 42 mg/kg. Also, the results for the “mice rescued (survival)” value in the series with C. albicans CBS 562 [3] (3.5 mg/kg) and in the series with C. albicans CBS 562 [3] (7 mg/kg) were “the same level of efficacy” and “rescued all of the mice”, respectively.
